Experimental data: ChEMBL document CHEMBL5625248, “Identification of unique indolylcyanoethylenyl sulfonylanilines as novel structural scaffolds of potential antibacterial agents” (Eur J Med Chem, 2023)
Values after ≈ are worked out from the molar mass of the structure shown. Active and inactive are the calls of the source. The calls are words filed in the database; no cut-off is given here.

Columns and labels:
[1] = test system: Klebsiella pneumoniae; assay: Antibacterial activity against Klebsiella pneumoniae assessed as inhibition of bacterial growth incubated for 18 hrs by two fold broth microdilution assay; assay type: functional
[2] = test system: Cell membrane; assay: Induction of membrane depolarization in Acinetobacter baumannii assessed as increase in fluorescence intensity measured at 20 to 120 min by DiSC3(5) dye-based fluorescence assay; assay type: cell membranes; details: time 20-120 min
[3] = test system: Escherichia coli; assay: Antibacterial activity against Escherichia coli ATCC 25922 assessed as inhibition of bacterial growth incubated for 18 hrs by two fold broth microdilution assay; assay type: functional
[4] = test system: Calf thymus DNA; assay: Binding affinity to calf thymus DNA assessed as decrease in fluorescence intensity of AO-DNA binding by acridine orange probe based competitive binding assay; assay type: nucleic-acid assay; details: Bos taurus
[5] = test system: Acinetobacter baumannii; assay: Induction of oxidative stress in Acinetobacter baumannii assessed as decrease in GSH activity by Ellman's method; assay type: functional, organism-based
[6] = test system: Acinetobacter baumannii; assay: Antibacterial activity against Acinetobacter baumannii assessed as increase in intracellular ROS production by DCFH-DA staining based assay; assay type: functional, organism-based
[7] = test system: Cell membrane; assay: Induction of membrane depolarization in Escherichia coli ATCC 25922 assessed as increase in fluorescence intensity at 1 to 8 times MIC by DiSC3(5) dye-based fluorescence assay; assay type: cell membranes; details: TDE = time-dependent effect
[8] = test system: Erythrocyte; assay: Hemolytic activity in human RBC assessed as intact cell surface at 512 ug/ml incubated for 1 hr by microscopic analysis; assay type: toxicity, cell-based; details: dose 512 µg/ml
[9] = Hemolytic activity in human RBC assessed as hemolysis at 512 ug/ml incubated for 1 hr relative to control; assay type: toxicity, cell-based, Erythrocyte; details: human red blood cells (erythrocytes), at 512 µg/mL, read-out: Activity
[10] = test system: Cell membrane; assay: Induction of cell membrane disruption in Escherichia coli ATCC 25922 assessed as cell membrane shrank at 2 times MIC by scanning electron microscopic analysis; assay type: cell membranes
[11] = test system: Cell membrane; assay: Induction of inner membrane permeabilization in Acinetobacter baumannii assessed as increase in fluorescence intensity by PI staining based fluorescence analysis; assay type: cell membranes
[12] = test system: Escherichia coli; assay: Induction of oxidative stress in Escherichia coli ATCC 25922 assessed as decrease in GSH activity by Ellman's method; assay type: functional, organism-based
[13] = test system: Acinetobacter baumannii; assay: Induction of drug resistance against Acinetobacter baumannii assessed as fold increase at MIC measured after 16 passages; assay type: functional
[14] = test system: Staphylococcus aureus; assay: Antibacterial activity against methicilin-resistant Staphylococcus aureus N315 assessed as inhibition of bacterial growth incubated for 18 hrs by two fold broth microdilution assay; assay type: functional
[15] = test system: Cell membrane; assay: Induction of outer membrane permeabilization in Escherichia coli ATCC 25922 assessed as increase in fluorescence intensity by NPN-dye based fluorescence analysis; assay type: cell membranes
[16] = test system: Escherichia coli; assay: Bactericidal activity against Escherichia coli ATCC 25922 assessed as reduction in colony forming unit at MIC by time-kill kinetic assay; assay type: functional
[17] = test system: Acinetobacter baumannii; assay: Antibacterial activity against Acinetobacter baumannii assessed as reduction in biofilm formation; assay type: functional, organism-based
[18] = test system: Cell membrane; assay: Induction of inner membrane damage in Escherichia coli ATCC 25922 at 1 to 4 times MIC by PI staining fluorescence microscopy; assay type: cell membranes
[19] = test system: Escherichia coli; assay: Antibacterial activity against Escherichia coli ATCC 25922 assessed as reduction in biofilm formation at 8 times MIC relative to control; assay type: functional; set-up: scale not given: the % may be the effect or the level left
[20] = test system: Escherichia coli; assay: Antibacterial activity against Escherichia coli ATCC 25922 assessed as reduction in metabolic activity by alamar blue staining based assay; assay type: functional, organism-based
[21] = Cytotoxicity against human Colon epithelial cell at 20 ug/ml; assay type: toxicity, cell-based; details: dose 20 µg/ml
[22] = test system: Acinetobacter baumannii; assay: Antibacterial activity against Acinetobacter baumannii assessed as increase in intracellular ROS production by measuring green fluorescence by DCFH-DA staining based microscopic analysis; assay type: functional, organism-based
[23] = test system: Cell membrane; assay: Induction of inner membrane damage in Acinetobacter baumannii at 1 to 4 times MIC by PI staining fluorescence microscopy; assay type: cell membranes
[24] = test system: Cell membrane; assay: Induction of cell membrane disruption in Acinetobacter baumannii assessed as increase in protein leakage at 0.5 to 8 times MIC; assay type: cell membranes
[25] = test system: Acinetobacter baumannii; assay: Antibacterial activity against Acinetobacter baumannii assessed as inhibition of bacterial growth incubated for 18 hrs by two fold broth microdilution assay; assay type: functional
[26] = test system: Acinetobacter baumannii; assay: Antibacterial activity against Acinetobacter baumannii assessed as reduction in LDH activity; assay type: functional, organism-based
[27] = test system: Cell membrane; assay: Induction of inner membrane permeabilization in Escherichia coli ATCC 25922 assessed as increase in fluorescence intensity by PI staining based fluorescence analysis; assay type: cell membranes
[28] = test system: Staphylococcus aureus; assay: Antibacterial activity against Staphylococcus aureus ATCC 25923 assessed as inhibition of bacterial growth incubated for 18 hrs by two fold broth microdilution assay; assay type: functional
[29] = Cytotoxicity against human Squamous epithelial cell assessed as cell viability upto 50 ug/ml relative to control; assay type: toxicity, cell-based; details: squamous epithelial cells, up to 50 µg/mL, read-out: Activity
[30] = test system: Escherichia coli; assay: Antibacterial activity against Escherichia coli assessed as inhibition of bacterial growth incubated for 18 hrs by two fold broth microdilution assay; assay type: functional
[31] = test system: Escherichia coli; assay: Antibacterial activity against Escherichia coli ATCC 25922 assessed as increase in intracellular ROS production by DCFH-DA staining based assay; assay type: functional, organism-based
[32] = test system: Cell membrane; assay: Induction of cell membrane disruption in Acinetobacter baumannii assessed as cell membrane shrank at 2 times MIC by scanning electron microscopic analysis; assay type: cell membranes
[33] = test system: Cell membrane; assay: Induction of outer membrane permeabilization in Acinetobacter baumannii assessed as increase in fluorescence intensity by NPN-dye based fluorescence analysis; assay type: cell membranes
[34] = test system: Cell membrane; assay: Induction of membrane depolarization in Escherichia coli ATCC 25922 assessed as increase in fluorescence intensity measured at 20 to 120 min by DiSC3(5) dye-based fluorescence assay; assay type: cell membranes; details: time 20-120 min
[35] = test system: Cell membrane; assay: Induction of membrane depolarization in Acinetobacter baumannii assessed as increase in fluorescence intensity at 1 to 8 times MIC by DiSC3(5) dye-based fluorescence assay; assay type: cell membranes; details: TDE = time-dependent effect
[36] = test system: Staphylococcus aureus; assay: Antibacterial activity against Staphylococcus aureus ATCC 29213 assessed as inhibition of bacterial growth incubated for 18 hrs by two fold broth microdilution assay; assay type: functional
[37] = test system: Escherichia coli; assay: Antibacterial activity against Escherichia coli ATCC 25922 assessed as reduction in LDH activity; assay type: functional, organism-based
[38] = test system: Escherichia coli; assay: Bactericidal activity against Escherichia coli ATCC 25922 assessed as reduction in bacterial growth at 4 times MIC observed after 2 hrs by time-kill kinetic assay; assay type: functional; set-up: scale not given: the % may be the effect or the level left
[39] = test system: Escherichia coli; assay: Antibacterial activity against Escherichia coli ATCC 25922 assessed as increase in intracellular ROS production by measuring green fluorescence by DCFH-DA staining based microscopic analysis; assay type: functional, organism-based
[40] = test system: Staphylococcus aureus; assay: Antibacterial activity against Staphylococcus aureus assessed as inhibition of bacterial growth incubated for 18 hrs by two fold broth microdilution assay; assay type: functional
[41] = Cytotoxicity against human Squamous epithelial cell at 20 ug/ml; assay type: toxicity, cell-based; details: dose 20 µg/ml
[42] = test system: Enterococcus faecalis; assay: Antibacterial activity against Enterococcus faecalis assessed as inhibition of bacterial growth incubated for 18 hrs by two fold broth microdilution assay; assay type: functional
[43] = test system: Pseudomonas aeruginosa; assay: Antibacterial activity against Pseudomonas aeruginosa ATCC 27853 assessed as inhibition of bacterial growth incubated for 18 hrs by two fold broth microdilution assay; assay type: functional
[44] = test system: Acinetobacter baumannii; assay: Antibacterial activity against Acinetobacter baumannii assessed as reduction in biofilm formation at 8 times MIC relative to control; assay type: functional; set-up: scale not given: the % may be the effect or the level left
[45] = test system: Pseudomonas aeruginosa; assay: Antibacterial activity against Pseudomonas aeruginosa assessed as inhibition of bacterial growth incubated for 18 hrs by two fold broth microdilution assay; assay type: functional
[46] = test system: Acinetobacter baumannii; assay: Bactericidal activity against Acinetobacter baumannii assessed as reduction in colony forming unit at MIC by time-kill kinetic assay; assay type: functional
[47] = test system: Acinetobacter baumannii; assay: Bactericidal activity against Acinetobacter baumannii assessed as reduction in bacterial growth at 4 times MIC observed after 2 hrs by time-kill kinetic assay; assay type: functional; set-up: scale not given: the % may be the effect or the level left
[48] = Cytotoxicity against human Colon epithelial cell assessed as cell viability upto 50 ug/ml relative to control; assay type: toxicity, cell-based; details: colon epithelial cells, up to 50 µg/mL, read-out: Activity
[49] = test system: Escherichia coli; assay: Antibacterial activity against Escherichia coli ATCC 25922 assessed as reduction in biofilm formation; assay type: functional, organism-based
[50] = test system: Acinetobacter baumannii; assay: Antibacterial activity against Acinetobacter baumannii assessed as reduction in metabolic activity by alamar blue staining based assay; assay type: functional, organism-based
[51] = test system: Cell membrane; assay: Induction of cell membrane disruption in Escherichia coli ATCC 25922 assessed as increase in protein leakage at 0.5 to 8 times MIC; assay type: cell membranes
[52] = test system: Escherichia coli; assay: Induction of drug resistance against Escherichia coli ATCC 25922 assessed as fold increase at MIC measured after 16 passages; assay type: functional
[53] = test system: Calf thymus DNA; assay: Binding affinity to calf thymus DNA assessed as DNA intercalation by measuring hypochromic shift by absorbance based UV-Vis spectroscopic analysis; assay type: nucleic-acid assay; details: Bos taurus

Structure (SMILES): N#C/C(=C\c1cn(CCO)c2ccccc12)S(=O)(=O)c1ccc(N)cc1
- MIC [1]: 8 µg/mL (≈ 21.8 µM)
- Activity [2]: Dose-Dependent Effect
- MIC [3]: 0.5 µg/mL (≈ 1.36 µM)
- Activity [4]: Active
- Activity [5]: Dose-Dependent Effect
- Activity [6]: Dose-Dependent Effect
- Activity [7]: Tde
- Activity [8]: Non-Toxic
- hemolysis at 1 h, 512 ug/ml [9]: < 3%
- Activity [10]: Active
- Activity [11]: Dose-Dependent Effect
- Activity [12]: Dose-Dependent Effect
- fold change (FC) [13]: 8
- MIC [14]: 2 µg/mL (≈ 5.44 µM)
- Activity [15]: Dose-Dependent Effect
- Activity [16]: 2.5 log10CFU
- Activity [17]: Dose-Dependent Effect
- Activity [18]: Active
- Activity [19]: 21%
- Activity [20]: Dose-Dependent Effect
- Activity [21]: Non-Toxic
- Activity [22]: Dose-Dependent Effect
- Activity [23]: Active
- Activity [24]: Active
- MIC [25]: 0.5 µg/mL (≈ 1.36 µM)
- Activity [26]: Dose-Dependent Effect
- Activity [27]: Dose-Dependent Effect
- MIC [28]: 1 µg/mL (≈ 2.72 µM)
- viability [29]: > 85%
- MIC [30]: 8 µg/mL (≈ 21.8 µM)
- Activity [31]: Dose-Dependent Effect
- Activity [32]: Active
- Activity [33]: Dose-Dependent Effect
- Activity [34]: Dose-Dependent Effect
- Activity [35]: Tde
- MIC [36]: 2 µg/mL (≈ 5.44 µM)
- Activity [37]: Dose-Dependent Effect
- Activity [38]: 57%
- Activity [39]: Dose-Dependent Effect
- MIC [40]: 2 µg/mL (≈ 5.44 µM)
- Activity [41]: Non-Toxic
- MIC [42]: 4 µg/mL (≈ 10.9 µM)
- MIC [43]: 4 µg/mL (≈ 10.9 µM)
- Activity [44]: 39%
- MIC [45]: 2 µg/mL (≈ 5.44 µM)
- Activity [46]: 2 log10CFU
- Activity [47]: 57%
- viability [48]: > 85%
- Activity [49]: Dose-Dependent Effect
- Activity [50]: Dose-Dependent Effect
- Activity [51]: Active
- fold change (FC) [52]: 8
- Activity [53]: Active
